The nature of experiment [1]: Cytotoxicity against human HT-29 cells assessed as reduction in cell viability measured after 48 hrs by resazurin dye-based fluorometric analysis. The class given is functional.
Experiment [2] is described as follows: Cytotoxicity against human HT-29 cells assessed as reduction in cell viability measured after 48 hrs by resazurin dye-based fluorometric analysis relative to control. The class given is functional. (Resazurin is reduced to fluorescent resorufin, in cell work by metabolically active cells.)

Bounds are passed on as bounds.

The term EC50 denotes the concentration needed to bring the measured effect to its halfway point. For `CC(C)(C)c1ocnc1/C=c1\[nH]c(=O)/c(=C/c2c3ccccc3cc3ccccc23)[nH]c1=O`, the EC50 in experiment [1] (Homo sapiens, HT-29, 48 h) was greater than 6230 nM.
As for `C=CC(C)(C)c1[nH]cnc1/C=C1\N=C(OC)C(Cc2ccccc2)N=C1OC` (stereo not given), the “inhibition (INH)” value in experiment [2] is 4%. Also, the EC50 in experiment [1] (Homo sapiens, HT-29, 48 h) is greater than 2000 nM.
Taken in the same sequence, the figures for `CC(C)(C)c1[nH]cnc1/C=c1\[nH]c(=O)/c(=C/c2cc(Br)ccc2O)[nH]c1=O.O=C(O)C(F)(F)F` were 13% and greater than 2000 nM.
With `CC(C)(C)c1[nH]cnc1/C=c1\[nH]c(=O)/c(=C/c2ccc(Cl)s2)[nH]c1=O`, in experiment [1] (Homo sapiens, HT-29, 48 h), the half-maximal effective concentration (EC50) was in the range of 165 to 184 nM.
For `CC(C)(C)c1[nH]cnc1/C=c1\[nH]c(=O)/c(=C/c2cccc(OC(F)(F)F)c2)[nH]c1=O.O=C(O)C(F)(F)F`, the “inhibition (INH)” value in experiment [2] came to 87%. In addition, in experiment [1] (Homo sapiens, HT-29, 48 h), the EC50 was 13 to 14.3 nM.
Consider `Cc1ccc(C)c(/C=c2\[nH]c(=O)/c(=C/c3nc[nH]c3C(C)(C)C)[nH]c2=O)c1.O=C(O)C(F)(F)F`, for which the “inhibition (INH)” value in experiment [2] is listed as 87%.
Turning to `CC(C)(C)c1ocnc1/C=c1\[nH]c(=O)/c(=C/c2cc3ccccc3s2)[nH]c1=O`, the EC50 in experiment [1] (Homo sapiens, HT-29, 48 h) is greater than 2000 nM.
On to `COc1cccc(/C=c2\[nH]c(=O)/c(=C/c3nc[nH]c3C(C)(C)C)[nH]c2=O)c1[N+](=O)[O-].O=C(O)C(F)(F)F`, for which the “inhibition (INH)” value in experiment [2] is on record as 83%.
Same read-out and setting: the figure for `CSc1ccccc1/C=c1\[nH]c(=O)/c(=C/c2nc[nH]c2C(C)(C)C)[nH]c1=O.O=C(O)C(F)(F)F` is 87%.
In the case of `COc1ccc(/C=c2\[nH]c(=O)/c(=C/c3nc[nH]c3C(C)(C)C)[nH]c2=O)c(O)c1.O=C(O)C(F)(F)F`, the “inhibition (INH)” value in experiment [2] is recorded as 8%. The half-maximal effective concentration (EC50) in experiment [1] (Homo sapiens, HT-29, 48 h) was greater than 2000 nM.
Regarding `CC(C)(C)c1[nH]cnc1/C=c1\[nH]c(=O)/c(=C/c2cc(Cl)cc(Cl)c2)[nH]c1=O.O=C(O)C(F)(F)F`, in experiment [2], the “inhibition (INH)” value is recorded as 87%.
Turning to `CC(C)(C)c1[nH]cnc1/C=c1\[nH]c(=O)/c(=C/c2cccc3c2OCO3)[nH]c1=O`, the EC50 in experiment [1] (ht-29) worked out at 52 nM.
As to `Cc1c(F)cccc1/C=c1\[nH]c(=O)/c(=C/c2nc[nH]c2C(C)(C)C)[nH]c1=O.O=C(O)C(F)(F)F`, the “inhibition (INH)” value in experiment [2] was found to be 86%.
On the same count and under the same terms, the figure for `C=CC(C)(C)c1[nH]cnc1/C=c1\[nH]c(=O)/c(=C\c2ccc(OC)cc2)[nH]c1=O` is 63%.
For `CC(C)(C)c1ocnc1/C=c1\[nH]c(=O)/c(=C/c2cn(S(=O)(=O)c3ccccc3)c3ccccc23)[nH]c1=O`, the half-maximal effective concentration (EC50) in experiment [1] (Homo sapiens, HT-29, 48 h) was greater than 6230 nM.
For `COc1ccc(/C=c2\[nH]c(=O)/c(=C/c3nc[nH]c3C(C)(C)C)[nH]c2=O)cc1O.O=C(O)C(F)(F)F`, in experiment [2], the “inhibition (INH)” value was 66%.
Same read-out and setting: the figure for `CC(C)(C)c1[nH]cnc1/C=c1\[nH]c(=O)/c(=C/c2ccc(Br)o2)[nH]c1=O.O=C(O)C(F)(F)F` is 87%; for `CC(C)(C)c1[nH]cnc1/C=c1\[nH]c(=O)/c(=C/c2sccc2B(O)O)[nH]c1=O.O=C(O)C(F)(F)F` it is 88%.
In the case of `COc1cccc(C)c1/C=c1\[nH]c(=O)/c(=C/c2nc[nH]c2C(C)(C)C)[nH]c1=O`, the concentration giving a half-maximal response (EC50) in experiment [1] (Homo sapiens, HT-29, 48 h) came to 517 nM.
Consider `CC(C)(C)c1[nH]cnc1/C=c1\[nH]c(=O)/c(=C/c2ccc(C#N)cc2)[nH]c1=O.O=C(O)C(F)(F)F`, for which the “inhibition (INH)” value in experiment [2] came out at 14%.
On the same count and under the same terms, the value for `CC(C)(C)c1[nH]cnc1/C=c1\[nH]c(=O)/c(=C/c2ccccc2N)[nH]c1=O.O=C(O)C(F)(F)F` was 86%.
The same measure, in the same setting: the figure for `CC(C)(C)c1ccc(O)c(/C=c2\[nH]c(=O)/c(=C/c3nc[nH]c3C(C)(C)C)[nH]c2=O)c1.O=C(O)C(F)(F)F` is 80%.
Still for that read-out and setting: the figure for `COc1cccc(/C=c2\[nH]c(=O)/c(=C/c3nc[nH]c3C(C)(C)C)[nH]c2=O)c1N.O=C(O)C(F)(F)F` is 87%; for `COc1cc(/C=c2\[nH]c(=O)/c(=C/c3nc[nH]c3C(C)(C)C)[nH]c2=O)ccc1F.O=C(O)C(F)(F)F` it is 85%.
In the case of `CCc1ccc(/C=c2\[nH]c(=O)/c(=C/c3nc[nH]c3C(C)(C)C)[nH]c2=O)s1.O=C(O)C(F)(F)F`, the “inhibition (INH)” value in experiment [2] turned out to be 87%.
For `COc1ccsc1/C=c1\[nH]c(=O)/c(=C/c2nc[nH]c2C(C)(C)C)[nH]c1=O.O=C(O)C(F)(F)F`, the “inhibition (INH)” value in experiment [2] was determined as 88%.
